Target: T1, Prostaglandin E synthase (Homo sapiens, UniProt O14684)
T1 sequence (O14684 whole entry): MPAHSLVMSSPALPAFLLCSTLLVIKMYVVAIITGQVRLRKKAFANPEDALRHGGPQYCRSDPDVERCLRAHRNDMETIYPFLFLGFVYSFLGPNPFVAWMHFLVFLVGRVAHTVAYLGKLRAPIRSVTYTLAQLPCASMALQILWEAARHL
Experiment: Biochemical Assay
Details: pH 6.8
Method: A solution of test compound was added to a diluted microsome preparation containing human mPGES-1 and pre-incubated for 15 minutes in potassium phosphate buffer pH 6.8 with cofactor glutathione (GSH). Corresponding solutions without test compound were used as positive controls, and corresponding solutions without test compound and without microsomes were used as negative controls. The enzymatic reaction was then started by addition of the substrate PGH2 in an organic solution (dry acetonitrile).The typical reaction conditions of the enzymatic reaction were thus: Test compound: ranging from 60 uM to 0.002 uM, or zero in positive and negative controls; potassium phosphate buffer pH 6.8: 50 mM; GSH: 2.5 mM; mPGES-1-containing microsomes: 2 ug/mL (sample and positive controls) or 0 ug/mL (negative control); PGH2: 10.8 uM; Acetonitrile: 7.7% (v/v); DMSO: 0.6% (v/v). The reaction was stopped after one minute by adding an acidic solution (pH 1.9) of ferric chloride.

IC50: 6.2 µM
SMILES: COc1ccc(Br)cc1/C=C/S(=O)(=O)Nc1ccc(C#CC(C)(C)O)cc1S(N)(=O)=O [US9145380, 179]

Reference: BindingDB's records for patent US9145380 (Astrazeneca, 2015)
